From PMC9706563, “Development of Macrocyclic PRMT5–Adaptor Protein Interaction Inhibitors” (Journal of Medicinal Chemistry, 2022)
Entries after “also recorded” stand apart in the source; their conditions may differ.

Legend:
PRMT5-MEP50 [1] = target: T1, PRMT5-MEP50 (Homo sapiens, UniProt O14744); assay: MTase-Glo methyltransferase activity assay; assay type: biochemical; conditions: H4 histone tail peptide substrate
T1 construct: The compounds were tested by means of FP with the full-length PRMT5-MEP50 complex; made in house
Method: The assay was performed in 1× reaction buffer of 20 mM Tris, 50 mM NaCl, 1 mM EDTA, 3 mM MgCl2, 0.1 mg/mL BSA, and 1 mM DTT at pH = 8.0 in white, 384-well plates. […] The plate was incubated at 20–21 °C for 1 h. MTase-Glo detection solution (5 μL) was added, and the plate was incubated at 20–21 °C for 1 h, followed by a luminescence measurement at a plate reader. The experiment was performed in triplicate.

PRMT5-MEP50 + pICln = target: T2, PRMT5-MEP50 + pICln (Homo sapiens, UniProt O14744); assay: Competitive FP assay with Alexa 488-labeled full-length human pICln; assay type: binding; conditions: competition with labeled pICln; supplementary CSV; read-out: PRMT5-MEP50 + pICln IC50
T2 construct: made in house
Method: To a solution of the full-length pICln protein (ca. 1 mg/mL) in 0.2 M bicarbonate buffer with 1 mM TCEP at pH 8.3 was added 10 mM Alexa […] in DMSO (8 equiv). The solution was kept on ice under dark conditions overnight. The protein was washed 8–10 times with a buffer intended for the fluorescence polarization assay (50 mM HEPES, 250 mM NaCl, 1 mM TCEP, 8.0 pH) using an Amicon Ultra-0.5 mL spin filter (Merck, Germany). Protein concentration was determined using the NanoDrop spectrophotometer.
The competitive binding assay was performed in a buffer of 50 mM HEPES, 250 mM NaCl, 1 mM TCEP, and 0.01% (v/v) Tween 20, 8.0 pH, in black, 384-well plates with a total volume of 10 μL per well. […] The plates were incubated at room temperature for up to 1 h 45 min and analyzed on a plate reader using 485 nm excitation and 535 nm emission wavelength. The experiment was performed in triplicate.

PRMT5-MEP50 [2] = target: T1, PRMT5-MEP50; assay: Competitive binding FP assay, FITC-labeled 50 as tracer; conditions: competitive FP, compound 50 as tracer, 194 nM PRMT5-MEP50
Method: (§1) The competitive binding assay was performed in a buffer of 50 mM HEPES, 250 mM NaCl, 1 mM TCEP, and 0.01% (v/v) Tween 20, 8.0 pH, in black, 384-well plates with a total volume of 10 μL per well. The FITC-labeled peptides or the Alexa 488-labeled pICln protein, at a final concentration of 1 nM, were mixed with PRMT5-MEP50 (at a final concentration of 194 nM when used with peptide 50, 600 nM with compound S1 [see Table S3] and 21, and 27 nM in the case of Alexa 488-labeled pICln), and the appropriate nonlabeled peptide or protein was titrated as two-fold dilution series. The plates were incubated at room temperature for up to 1 h 45 min and analyzed on a plate reader using 485 nm excitation and 535 nm emission wavelength. The experiment was performed in triplicate.

PRMT5-MEP50 [3] = target: T1, PRMT5-MEP50; assay: Competitive binding FP assay, compound 21 as tracer
Method: as §1

[4] = Stability assay in cell lysate; assay type: in vitro ADME
Method: To the whole cell lysate prepared from U2OS cells with the freeze–thaw method was added the appropriate peptide, resulting in a mixture of 0.5 mg/mL protein and 600 μM peptide in PBS, and incubated at 37 °C. The samples were taken at 0, 15, 30 min, 1, 2, 4 h, 1, 3, and 7-days time points and mixed with an equal volume of ice-cold ethylparaben solution in MeOH (0.1 mg/mL), used as the internal standard. The samples were kept on ice for 15 min and centrifuged at 16,873 × g at 4 °C for 5 min. The obtained supernatant was then analyzed by HPLC, the peptide and the internal standard peaks at 210 nm were integrated, and the ratio of the peptide peak surface area to the internal standard was calculated. The experiment was conducted in duplicate.

TIM-MEP50 complex = target: T3, TIM-MEP50 complex (Homo sapiens, UniProt O14744); assay: Thermal shift assay (TSA); assay type: binding; conditions: for TSA Average Tm (°C): supplementary CSV
T3 construct: made in house
Method: Thermal Shift Assays of peptides on the TIM-MEP50 complex were carried out in a 96-well PCR plate (LightCycler 480 Multiwell Plates 96, white, 04729692001). The purified protein complex was appropriately diluted in a buffer containing 50 mM HEPES (pH = 8.0), 250 mM NaCl, and 1 mM TCEP. All assay experiments used 5.36 μg of protein per well and […] 5000X Sypro Orange (Invitrogen) up to a total volume of 25 μL, with a resultant protein concentration of 3 μM and 5X SYPRO. Peptides were supplied at 10 mM concentration in DMSO. The PCR plates were sealed with an optical seal (LightCycler 480 Sealing Foil, 04729757001), shaken, and centrifuged after protein and compounds were added. Thermal scanning (25–95 °C at 1 °C/min) was performed using a real-time PCR setup (LightCycler 480 – Roche), and fluorescence intensity was measured after every temperature increment step. Analysis of the raw data was performed using internally developed software. Statistical validation of Tm shift relevance was performed using the Student’s t test (n = 6).

[5] = target: T4, PRMT5-MEP50 / RioK1 interaction (Homo sapiens, UniProt O14744); assay: GFP immunopurification from Flp-In T-REx 293 S100 extracts, RioK1 readout; assay type: binding; conditions: 50 μM
T4 construct: expressed in transfected cells; host or cells: Flp-In T-REx 293
Method: (§2) Harvested Flp-In T-Rex 293 cells were incubated with Roeder A buffer[32] in three times sample weight for 10 min at room temperature, dounced 10 times, and adjusted to 150 mM NaCl. After centrifugation at 17,000 g for 30 min, the supernatants (S100 extracts) were used for immunopurification and treatment with inhibitors.
(§3) For the treatment, the S100 extracts of GFP, GFP-PRMT5, GFP-RioK1, and GFP-pICln were incubated with DMSO, active 53, and scrambled 54, used at a concentration of 50 μM. The incubation with the S100 extract was carried out for 1 h at room temperature. For GFP immunopurification, S100 extracts were incubated with GFP-Trap_A beads (ChromoTek) at 4 °C for 2 h with rotation. Purified proteins were washed 3 times with washing buffer (150 mM NaCl, 50 mM Tris/HCl pH 7.5, 1 mM EDTA, 1 mM EGTA, and 0.01% Igepal with protease inhibitors), eluted in sample buffer [375 mM Tris pH 7.5; 25.8% (w/v) glycerol; 12.3% (w/v) SDS; 0.06% (w/v) bromophenol blue; and 6% (v/v) β-mercaptoethanol; pH 6.8], and analyzed by immunoblotting.
(§4) Immunopurification samples were separated by Tris/Tricine or Tris/Glycine SDS gel electrophoresis[33] and transferred to PVDF membranes (Immobilon-FL, Merck Millipore). The immunoblot analysis was performed using the indicated antibodies against RioK1, PRMT5, MEP50, pICln, and GFP, and the signals were detected with an Odyssey LI-COR Imaging System.

[6] = target: T5, PRMT5-MEP50 / pICln interaction (Homo sapiens, UniProt O14744); assay: GFP immunopurification from Flp-In T-REx 293 S100 extracts, pICln readout; assay type: binding; conditions: 50 μM
T5 construct: expressed in transfected cells; host or cells: Flp-In T-REx 293
Method: as §2, §3, §4

PRMT5-MEP50 complex = target: T6, PRMT5-MEP50 complex (Homo sapiens, UniProt O14744); assay: Pull-down with peptides immobilized on DBCO beads, MCF7 cell lysate; assay type: binding; conditions: for enrichment of the PRMT5-MEP50 complex by immobilized peptide: MCF7 cell lysate, DBCO beads, western blot
T6 construct: endogenous in cells; host or cells: MCF7
Method: DBCO agarose beads (300 μL; Jena Bioscience, Germany) were washed three times with PBS (600 μL, pH 7.4). To the beads suspended in PBS (600 μL) was added a 10 mM solution of azide-labeled peptide in DMSO or pure DMSO. The obtained suspensions were incubated overnight at 4 °C. The beads were washed with PBS three times for 10 min. MCF7 cells were harvested and lysed using Triton X100 lysis buffer (NaCl 150 mM, HEPES 25 mM, TCEP 1 mM, 1% Triton x100, 1% NP40 alternative, protease, and phosphatase inhibitor, pH 7.4). Empty beads, beads bound to an active peptide (55), or beads bound to a scrambled peptide (56) were added to the lysate (6 mg/mL) and rotated at 4 °C overnight. Beads attached to the active peptides were also incubated in the lysate containing a nonimmobilized/free active macrocycle (53 at 100 μM). Beads were collected by centrifugation (800g for 1 min) and washed three times for 10 min with PBS (500 μL). The beads were suspended in SDS-PAGE protein loading buffer (20 uL; […], 8% v/v glycerol, 2% SDS, […] (DTE), 0.02% bromophenol blue, pH 6.8), heated with shaking for 10 min at 95 °C, and centrifuged at 350 rpm. The obtained solutions were analyzed by western blotting using 10% acrylamide gels, and PVDF membranes and the relevant proteins were fluorescently detected using antibodies against PRMT5 and MEP50 and the corresponding secondary IRDye antibodies.

T3 sequence (O14744 13-292 limits assumed): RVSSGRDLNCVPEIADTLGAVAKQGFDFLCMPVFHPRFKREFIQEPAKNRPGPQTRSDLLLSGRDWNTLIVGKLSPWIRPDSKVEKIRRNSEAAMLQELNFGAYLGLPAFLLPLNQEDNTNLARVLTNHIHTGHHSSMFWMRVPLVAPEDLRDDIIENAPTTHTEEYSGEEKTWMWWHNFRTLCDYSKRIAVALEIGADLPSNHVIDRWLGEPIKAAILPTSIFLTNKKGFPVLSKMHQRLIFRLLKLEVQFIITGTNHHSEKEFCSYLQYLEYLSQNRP
T3 sequence (Q9BQA1 whole entry partner): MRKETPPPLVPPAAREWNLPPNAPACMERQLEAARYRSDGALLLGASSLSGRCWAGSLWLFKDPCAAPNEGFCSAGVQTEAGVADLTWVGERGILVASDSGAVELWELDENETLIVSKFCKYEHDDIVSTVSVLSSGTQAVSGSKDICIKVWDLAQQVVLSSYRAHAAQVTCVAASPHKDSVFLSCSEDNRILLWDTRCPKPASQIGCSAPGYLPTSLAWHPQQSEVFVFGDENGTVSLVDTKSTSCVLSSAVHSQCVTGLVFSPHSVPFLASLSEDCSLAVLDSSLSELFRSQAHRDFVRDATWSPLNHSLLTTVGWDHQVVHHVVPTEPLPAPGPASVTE
T6 sequence (O14744 whole entry): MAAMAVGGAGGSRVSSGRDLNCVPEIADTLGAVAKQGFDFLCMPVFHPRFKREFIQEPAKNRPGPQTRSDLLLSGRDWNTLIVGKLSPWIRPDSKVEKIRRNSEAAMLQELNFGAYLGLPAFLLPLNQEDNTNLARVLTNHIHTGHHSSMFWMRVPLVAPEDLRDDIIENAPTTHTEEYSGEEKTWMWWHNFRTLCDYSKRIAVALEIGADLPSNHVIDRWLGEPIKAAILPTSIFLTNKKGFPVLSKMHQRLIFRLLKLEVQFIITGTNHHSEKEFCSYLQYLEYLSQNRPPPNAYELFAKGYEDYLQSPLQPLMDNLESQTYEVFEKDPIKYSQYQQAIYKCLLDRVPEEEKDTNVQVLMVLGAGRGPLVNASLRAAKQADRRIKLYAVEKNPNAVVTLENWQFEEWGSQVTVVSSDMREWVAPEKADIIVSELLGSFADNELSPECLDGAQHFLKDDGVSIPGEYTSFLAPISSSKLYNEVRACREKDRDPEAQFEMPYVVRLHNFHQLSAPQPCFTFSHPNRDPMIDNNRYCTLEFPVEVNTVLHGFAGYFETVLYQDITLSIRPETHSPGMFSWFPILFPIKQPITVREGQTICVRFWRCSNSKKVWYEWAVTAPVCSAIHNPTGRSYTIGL
T6 sequence (Q9BQA1 whole entry partner): as the sequence (Q9BQA1 whole entry partner) above
T1 sequence (O14744 whole entry): as the sequence (O14744 whole entry) above
T1 sequence (Q9BQA1 whole entry partner): as the sequence (Q9BQA1 whole entry partner) above
T5 sequence (O14744 whole entry): as the sequence (O14744 whole entry) above
T5 sequence (Q9BQA1 whole entry partner): as the sequence (Q9BQA1 whole entry partner) above
T4 sequence (O14744 whole entry): as the sequence (O14744 whole entry) above
T4 sequence (Q9BQA1 whole entry partner): as the sequence (Q9BQA1 whole entry partner) above
T2 sequence (O14744 whole entry): as the sequence (O14744 whole entry) above
T2 sequence (Q9BQA1 whole entry partner): as the sequence (Q9BQA1 whole entry partner) above

CC(=O)N[C@H](C(=O)N1CCC[C@H]1C(=O)NC1CCCCC[C@@H](C(=O)N[C@@H](CC(=O)O)C(=O)N[C@@H](C)C(=O)N[C@@H](CC(=O)O)C(N)=O)NC(=O)[C@H](Cc2ccccc2)NC(=O)[C@H](CCC(N)=O)NC1=O)C(C)C (stereo in doubt) [Compound 30]
effect on direct methylation activity of PRMT5 (PRMT5-MEP50 [1]): has no effect; also recorded: does not interfere with the direct methylation activity of the enzyme | IC50 (PRMT5-MEP50 + pICln): 3.2 ± 2.4 µM | IC50 (PRMT5-MEP50 [2]): 1.06 ± 0.24 µM | IC50 (PRMT5-MEP50 [3]; competitive FP, compound 21 as tracer, 600 nM PRMT5-MEP50): 1.17 ± 0.29 µM | Ki (PRMT5-MEP50 [3]; from competitive FP with tracer 21): 0.313 ± 0.121 µM | half-life ([4]; U2OS cell lysate, 37 °C, 600 μM peptide, read-out: half-life (converted)): 12.5 days | increase of half-life over the linear 31 ([4]; cell lysate, 37 °C): 70 fold | Half-llife in Lysate ([4]; supplementary CSV): 12.5 days | TSA Average Tm (°C) (TIM-MEP50 complex): 51.32 ± 0.00 °C

CC(=O)N[C@H](C(=O)N1CCC[C@H]1C(=O)NC1CCCCC[C@@H](C(=O)N[C@@H](CC(=O)O)C(=O)N[C@@H](C)C(=O)N[C@@H](CC(C(=O)O)C(=O)O)C(N)=O)NC(=O)[C@H](Cc2ccc([N+](=O)[O-])cc2)NC(=O)[C@H](CCC(N)=O)NC1=O)C(C)C (stereo in doubt) [Compound 53]
enrichment of RioK1 with GFP-PRMT5 ([5]; GFP-PRMT5 IP): enrichment of RioK1 was blocked | interaction of RioK1 with PRMT5-MEP50 ([5]; GFP-RioK1 IP): fully inhibited RioK1 from interacting with the PRMT5-MEP50 complex | binding of pICln to the complex with GFP-PRMT5 ([6]; GFP-PRMT5 IP): binding of pICln to the complex was not inhibited | interaction of pICln with PRMT5-MEP50 ([6]; GFP-pICln IP): pICln still engaged with it | competition of free peptide with immobilized 55 (PRMT5-MEP50 complex; 100 μM nonimmobilized peptide in MCF7 lysate): demonstrated competition between the immobilized and free peptide | increase of the average melting temperature (TIM-MEP50 complex; TSA, PRMT5 TIM barrel-MEP50 complex, n = 6): 2.27 °C | TSA Average Tm (°C) (TIM-MEP50 complex): 51.75 ± 0.42 °C

CC(=O)N[C@H](C(=O)N1CCC[C@H]1C(=O)N[C@@H]1CCCCC[C@@H](C(=O)N[C@@H](CC(=O)O)C(=O)N[C@@H](C)C(=O)N[C@@H](CC(C(=O)O)C(=O)O)C(=O)N[C@@H](CCCCNC(=O)COCCOCCOCCN=[N+]=[N-])C(N)=O)NC(=O)[C@H](Cc2ccc([N+](=O)[O-])cc2)NC(=O)[C@H](CCC(N)=O)NC1=O)C(C)C [Compound 55]
enrichment of the PRMT5-MEP50 complex by immobilized peptide (PRMT5-MEP50 complex): successfully enriched the PRMT5-MEP50 complex

CC(=O)N1CCC[C@H]1C(=O)N[C@H](C(=O)N[C@@H]1CCCCC[C@@H](C(=O)N[C@@H](Cc2ccc([N+](=O)[O-])cc2)C(=O)N[C@@H](CC(C(=O)O)C(=O)O)C(=O)N[C@@H](CCC(N)=O)C(=O)N[C@@H](CCCCNC(=O)COCCOCCOCCN=[N+]=[N-])C(N)=O)NC(=O)[C@H](CC(=O)O)NC(=O)[C@H](C)NC1=O)C(C)C [Compound 56]
enrichment of the PRMT5-MEP50 complex by immobilized peptide (PRMT5-MEP50 complex): did not show significant interaction

O=C(NC[C@H](O)CN1CCc2ccccc2C1)c1cc(NC2COC2)ncn1 [EPZ015666, reference compound]
effect on direct methylation activity of PRMT5 (PRMT5-MEP50 [1]): is able to inhibit
